Source: PubChem BioAssay AID256 (DTP/NCI, 2004)
Toxic doses and inconclusive results are not listed. The calls were made as follows: active = survival T/C of 150% or more; inactive = T/C below 125% in these data.

System: CD2F1 mice, L1210 leukemia ip, survival T/C
Experiment: NCI In Vivo Anticancer Drug Screen. Data for tumor model L1210 Leukemia (intraperitoneal) in CD2F1 (CDF1) mice
Conditions: higher = longer survival
Method in brief: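 Transplantable tumor in mice; compound-treated vs vehicle-treated groups. Read-out = treated/control ratio of the measured endpoint.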

[1] = endpoint: mean survival time, dose: 75.0 mg/kg/injection, schedule: Q01DX001 (ip), vehicle: other
[2] = endpoint: mean survival time, dose: 150.0 mg/kg/injection, schedule: Q01DX001 (ip), vehicle: other
[3] = endpoint: mean survival time, dose: 100.0 mg/kg/injection, schedule: Q01DX009 (ip), vehicle: saline with Tween-80
[4] = endpoint: mean survival time, dose: 100.0 mg/kg/injection, schedule: Q04DX003 (ip), vehicle: saline with Tween-80
[5] = endpoint: mean survival time, dose: 200.0 mg/kg/injection, schedule: Q01DX009 (ip), vehicle: saline with Tween-80
[6] = endpoint: mean survival time, dose: 200.0 mg/kg/injection, schedule: Q04DX003 (ip), vehicle: saline with Tween-80
[7] = endpoint: mean survival time, dose: 400.0 mg/kg/injection, schedule: Q04DX003 (ip), vehicle: saline with Tween-80
[8] = endpoint: mean survival time, dose: 75.0 mg/kg/injection, schedule: Q01DX001 (ip), vehicle: saline
[9] = endpoint: mean survival time, dose: 150.0 mg/kg/injection, schedule: Q01DX001 (ip), vehicle: saline
[10] = endpoint: mean survival time, dose: 300.0 mg/kg/injection, schedule: Q01DX001 (ip), vehicle: saline
[11] = endpoint: mean survival time, dose: 100.0 mg/kg/injection, schedule: Q04DX003 (ip), vehicle: Klucel (hydroxypropylcellulose) (HPC)
[12] = endpoint: mean survival time, dose: 200.0 mg/kg/injection, schedule: Q04DX003 (ip), vehicle: Klucel (hydroxypropylcellulose) (HPC)
[13] = endpoint: mean survival time, dose: 400.0 mg/kg/injection, schedule: Q04DX003 (ip), vehicle: Klucel (hydroxypropylcellulose) (HPC)
[14] = endpoint: mean survival time, dose: 400.0 mg/kg/injection, schedule: Q01DX009 (ip), vehicle: saline with Tween-80

Measured: T/C

C[N+]12CCC34c5ccccc5NC3C3C(CC(=O)[O-])OCC=C(C1)C3CC42 (configuration not stated)
inactive: [1] 96 % of control | [2] 98 % of control

O=NC1C2CCC(C2)C1Cl (configuration not stated)
inactive: endpoint: mean survival time, dose: 5.0 mg/kg/injection, schedule: Q01DX001 (ip), vehicle: saline 98 % of control | endpoint: mean survival time, dose: 10.0 mg/kg/injection, schedule: Q01DX001 (ip), vehicle: saline 97 % of control | endpoint: mean survival time, dose: 20.0 mg/kg/injection, schedule: Q01DX001 (ip), vehicle: saline 95 % of control

CC1(C)OC2C(/C=N\O)OC(n3cnc4c(N)ncnc43)C2O1 (configuration not stated)
inactive: endpoint: median survival time, dose: 12.5 mg/kg/injection, schedule: Q01DX005 (ip), vehicle: distilled water + Tween-80 98 % of control | endpoint: median survival time, dose: 25.0 mg/kg/injection, schedule: Q01DX005 (ip), vehicle: distilled water + Tween-80 90 % of control | endpoint: median survival time, dose: 50.0 mg/kg/injection, schedule: Q01DX005 (ip), vehicle: distilled water + Tween-80 96 % of control | endpoint: median survival time, dose: 100.0 mg/kg/injection, schedule: Q01DX005 (ip), vehicle: distilled water + Tween-80 101 % of control | endpoint: median survival time, dose: 200.0 mg/kg/injection, schedule: Q01DX005 (ip), vehicle: distilled water + Tween-80 101 % of control

O=C(COc1ccc(F)cc1F)OC(=O)Cc1ccc(Br)cc1
inactive: endpoint: mean survival time, dose: 100.0 mg/kg/injection, schedule: Q04DX002 (ip), vehicle: saline with Tween-80 101 % of control | endpoint: mean survival time, dose: 200.0 mg/kg/injection, schedule: Q04DX002 (ip), vehicle: saline with Tween-80 105 % of control | endpoint: mean survival time, dose: 400.0 mg/kg/injection, schedule: Q04DX002 (ip), vehicle: saline with Tween-80 86 % of control

CN(N=O)C(=O)NCC1OC(OC2(CNC(=O)N(C)N=O)OC(CNC(=O)N(C)N=O)C(O)C2O)C(O)C(O)C1O (configuration not stated)
inactive: endpoint: mean survival time, dose: 12.5 mg/kg/injection, schedule: Q01DX009 (ip), vehicle: water 102 % of control | endpoint: mean survival time, dose: 25.0 mg/kg/injection, schedule: Q01DX009 (ip), vehicle: water 104 % of control | endpoint: mean survival time, dose: 50.0 mg/kg/injection, schedule: Q01DX009 (ip), vehicle: water 110 % of control | endpoint: mean survival time, dose: 100.0 mg/kg/injection, schedule: Q01DX009 (ip), vehicle: water 117 % of control

CC1(C)CC=C(c2ccccc2)OC1c1ccccc1 (configuration not stated)
inactive: endpoint: mean survival time, dose: 100.0 mg/kg/injection, schedule: Q04DX002 (ip), vehicle: other 98 % of control | endpoint: mean survival time, dose: 200.0 mg/kg/injection, schedule: Q04DX002 (ip), vehicle: other 94 % of control | endpoint: mean survival time, dose: 400.0 mg/kg/injection, schedule: Q04DX002 (ip), vehicle: other 102 % of control

COc1ccc(OC)c(/C=C(\C#N)c2ccc([N+](=O)[O-])cc2)c1
inactive: endpoint: mean survival time, dose: 16.5 mg/kg/injection, schedule: Q01DX009 (ip), vehicle: saline with Tween-80 87 % of control | endpoint: mean survival time, dose: 25.0 mg/kg/injection, schedule: Q01DX009 (ip), vehicle: saline with Tween-80 87 % of control | [3] 90 % of control | [4] 91 % of control | [5] 86 % of control | [6] 101 % of control

CC1OC(n2ccc(=O)[nH]c2=O)C2OC(C)(C)OC2C1=O (configuration not stated)
inactive: endpoint: median survival time, dose: 12.5 mg/kg/injection, schedule: Q01DX005 (ip), vehicle: saline with Tween-80 109 % of control | endpoint: median survival time, dose: 25.0 mg/kg/injection, schedule: Q01DX005 (ip), vehicle: saline with Tween-80 97 % of control | endpoint: median survival time, dose: 50.0 mg/kg/injection, schedule: Q01DX005 (ip), vehicle: saline with Tween-80 97 % of control | endpoint: median survival time, dose: 100.0 mg/kg/injection, schedule: Q01DX005 (ip), vehicle: saline with Tween-80 101 % of control | endpoint: median survival time, dose: 200.0 mg/kg/injection, schedule: Q01DX005 (ip), vehicle: saline with Tween-80 101 % of control

CC(C)(CI)CI
inactive: [4] 104 % of control | [6] 102 % of control | [7] 96 % of control

c1ccc(Sc2ccc3ccccc3c2)cc1
inactive: [4] 98 % of control | [6] 101 % of control | [7] 91 % of control

CC1(C)N=C(N)N=C(N)N1c1ccc(CNC(=O)Nc2cccc(S(=O)(=O)F)c2)cc1
inactive: endpoint: mean survival time, dose: 6.25 mg/kg/injection, schedule: Q01DX009 (ip), vehicle: saline 115 % of control | [1] 104 % of control | [2] 107 % of control | endpoint: mean survival time, dose: 300.0 mg/kg/injection, schedule: Q01DX001 (ip), vehicle: other 115 % of control

c1ccc(CCC2=Nc3ccccc3CO2)cc1
inactive: [4] 102 % of control | [6] 103 % of control | [7] 102 % of control

Cc1cccc(NC(=S)NC(=O)c2ccccc2)n1
inactive: endpoint: mean survival time, dose: 12.5 mg/kg/injection, schedule: Q01DX009 (ip), vehicle: other 91 % of control | endpoint: mean survival time, dose: 25.0 mg/kg/injection, schedule: Q01DX009 (ip), vehicle: other 92 % of control | endpoint: mean survival time, dose: 50.0 mg/kg/injection, schedule: Q01DX009 (ip), vehicle: other 88 % of control | endpoint: mean survival time, dose: 100.0 mg/kg/injection, schedule: Q01DX009 (ip), vehicle: other 88 % of control | endpoint: mean survival time, dose: 200.0 mg/kg/injection, schedule: Q01DX009 (ip), vehicle: other 91 % of control

CN1C=NN(C)C=N1
inactive: [8] 100 % of control | [9] 97 % of control | [10] 108 % of control

Cc1ccc2c(/C=C/c3ccc(N(C)C)cc3)ccnc2c1
inactive: [11] 93 % of control | [12] 104 % of control | [13] 116 % of control

O=c1c2ccccc2[nH]c2cccc([N+](=O)[O-])c12
inactive: [3] 102 % of control | [4] 94 % of control | [5] 98 % of control | [6] 94 % of control | [14] 96 % of control | [7] 91 % of control

Cc1nc([N+](=O)[O-])c(Br)n1C
inactive: [4] 103 % of control | [6] 108 % of control | [7] 94 % of control

CC(=O)Nc1ccc(C)cc1C
inactive: [11] 94 % of control | [12] 103 % of control | [13] 97 % of control

Nc1ncnc2c1nc(Cl)n2C1OC2COP(=O)(O)OC2C1O (configuration not stated)
inactive: endpoint: mean survival time, dose: 12.5 mg/kg/injection, schedule: Q01DX005 (ip), vehicle: water 96 % of control | endpoint: mean survival time, dose: 25.0 mg/kg/injection, schedule: Q01DX005 (ip), vehicle: water 100 % of control | endpoint: mean survival time, dose: 50.0 mg/kg/injection, schedule: Q01DX005 (ip), vehicle: water 100 % of control

CCc1c(C)[nH]c2ccc([N+](=O)[O-])cc12
inactive: endpoint: mean survival time, dose: 50.0 mg/kg/injection, schedule: Q01DX009 (ip), vehicle: saline with Tween-80 103 % of control | [3] 94 % of control | [4] 100 % of control | [5] 97 % of control | [6] 93 % of control

C=C1C[C@@H](O)C[C@@]2(C)C[C@@H]3OC(=O)C(=C)[C@@H]3C[C@H]12
inactive: [3] 104 % of control | [5] 111 % of control

CC(O)C1NC(=S)N(c2ccccc2)C1=O (configuration not stated)
inactive: [8] 100 % of control | [9] 103 % of control | [10] 103 % of control

CC(C)C(=O)C(C)(C)C(=O)N1CCCCC1
inactive: [3] 96 % of control | [5] 103 % of control | [14] 94 % of control

c1ccc2c(c1)C(=NN=C1c3ccccc3-c3ccccc31)c1ccccc1-2
inactive: [3] 94 % of control | [4] 94 % of control | [5] 92 % of control | [6] 88 % of control | [14] 94 % of control | [7] 88 % of control

COc1ccccc1-n1c(O)c(N=Nc2ccccc2)c(=O)n(-c2ccccc2)c1=S
inactive: endpoint: mean survival time, dose: 100.0 mg/kg/injection, schedule: Q04DX003 (ip), vehicle: acetone 90 % of control

Cc1cn(C2CC(O)C(Cn3ccc4ccccc43)O2)c(=O)[nH]c1=O (configuration not stated)
inactive: endpoint: mean survival time, dose: 12.5 mg/kg/injection, schedule: Q01DX005 (ip), vehicle: Klucel (hydroxypropylcellulose) (HPC) 94 % of control | endpoint: mean survival time, dose: 25.0 mg/kg/injection, schedule: Q01DX005 (ip), vehicle: Klucel (hydroxypropylcellulose) (HPC) 90 % of control
